One data set is described as follows: PBS Stability Assay. In kind it is physicochemical. The settings on record: buffer, pH 7.4, 2 μM, phosphate buffered saline pH 7.4; read-out: PBS T½. Summed up: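 Half-life derives from first-order exponential decline of % compound remaining, quantified by LC-MS analyte/internal-standard peak-area ratio. Compound (2 μM final) sat in pH 7.4 phosphate-buffered saline, with aliquots quenched into acidified acetonitrile containing labetalol from 0 to 120 min.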

Another data set can be described thus: Solubility in FaSSIF. The settings on record: 23 °C, pH 6.5, fassif, thermodynamic from solid. A digest of the protocol: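 Concentration measured by HPLC-UV after solid compound was dosed at 5 mg/mL into pH 6.5 fasted-state simulated intestinal fluid containing taurocholate and lecithin (4:1 molar) and vortexed.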
Another data set relates to HIV-1 IIIB strain. Put plainly: MT-4 HIV Wild Type Virus Infection Assay (IIIB Virus). The following applies: Human immunodeficiency virus 1, IIIB, MT4, 120 h, MT-4 cells acutely infected with HIV-1 IIIB, 5 day incubation, Cell-titer glo. The format is cell-based. Summed up:
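MT-4 cells at 2×10^6 cells/ml in RPMI/10% FBS were acutely infected with HIV-1 IIIB for 1 h at 37° C, diluted 25× and added to serially diluted compounds. After 5 days at 37° C, viability read by CellTiter-Glo luminescence; EC50 from dose-response curves.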

Data set [1] has as its target bovine intestinal alkaline phosphatase (Bos taurus (Bovine), UniProt P19111). Put plainly: BiALP: conversion by bovine intestinal alkaline phosphatase. The format is in vitro ADME. The following applies: 2 μM substrate, 100 ng/mL iALP, Tris pH 7.8, 37° C., 60 minutes. Summed up: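 LC-MS (positive mode) quantified analyte/internal-standard peak area ratios, referenced to 2 μM parent product. This followed a 60 min, 37° C reaction of 2 μM substrate in Tris buffer pH 7.8 (1 mM MgCl2, 1 mM ZnCl2) containing 100 ng/mL iALP or buffer alone, run in triplicate.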

Converted amounts (≈) assume the structure as drawn.

bovine intestinal alkaline phosphatase, sequence (P19111 20-506): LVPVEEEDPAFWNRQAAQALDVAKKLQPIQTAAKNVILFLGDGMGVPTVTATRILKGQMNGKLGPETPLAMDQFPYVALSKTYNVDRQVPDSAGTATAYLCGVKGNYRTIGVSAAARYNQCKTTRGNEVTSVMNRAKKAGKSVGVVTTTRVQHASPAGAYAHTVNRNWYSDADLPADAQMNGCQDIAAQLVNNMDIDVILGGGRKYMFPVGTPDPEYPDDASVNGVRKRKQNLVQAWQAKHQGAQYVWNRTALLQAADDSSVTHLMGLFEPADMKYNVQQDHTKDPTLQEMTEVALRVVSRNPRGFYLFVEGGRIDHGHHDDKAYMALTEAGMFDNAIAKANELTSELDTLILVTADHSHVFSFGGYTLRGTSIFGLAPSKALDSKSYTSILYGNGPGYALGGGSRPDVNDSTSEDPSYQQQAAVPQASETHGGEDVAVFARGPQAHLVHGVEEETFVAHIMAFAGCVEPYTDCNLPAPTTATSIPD

With `COC(=O)N[C@H](C(=O)N[C@@H](Cc1ccc(C#Cc2cnc(N3CC4CCC(C3)N4C3COC3)nc2)cc1)[C@H](CN(Cc1c(F)cc(-c2ccn(C(F)F)n2)cc1F)NC(=O)[C@@H](NC(=O)OC)C(C)(C)C(F)(F)F)OC(=O)CC(C)(C)c1c(CC(=O)N(C)CCCC(=O)O)cc(C)cc1OP(=O)(O)O)C(C)(C)C(F)(F)F` [Example 93], the half-life at 2 μM in the data set “PBS Stability Assay” is 166 min. This compound registered a solubility at 2 h in “Solubility in FaSSIF” of less than 1000 µg/mL. Besides, the EC50 in the data set on HIV-1 IIIB strain was determined as 55.8 nM. Moreover, the “[Compound]” value in data set [1] was 1917.5 nM.

Regarding `COC(=O)N[C@H](C(=O)N[C@@H](Cc1ccc(C#Cc2cnc(N3CC4CCC(C3)N4C3COC3)nc2)cc1)[C@H](CN(Cc1c(F)cc(-c2ccn(C(F)F)n2)cc1F)NC(=O)[C@@H](NC(=O)OC)C(C)(C)C(F)(F)F)OC(=O)CC(C)(C)c1c(CC(=O)N(C)CCC(=O)O)cc(C)cc1OP(=O)(O)O)C(C)(C)C(F)(F)F` [Example 94], the half-life at 2 μM in “PBS Stability Assay” stood at 223 min. This compound gave a solubility at 2 h in the data set “Solubility in FaSSIF” of 1580 µg/mL (≈ 1010 µM). Also, a half-maximal response with HIV-1 IIIB strain (EC50) required 59 nM. Moreover, the “[Compound]” value in data set [1] is reported as 1912 nM.

With `COC(=O)N[C@H](C(=O)N[C@@H](Cc1ccc(C#Cc2cnc(N3CC4CCC(C3)N4C3COC3)nc2)cc1)[C@H](CN(Cc1c(F)cc(-c2ccn(C(F)F)n2)cc1F)NC(=O)[C@@H](NC(=O)OC)C(C)(C)C(F)(F)F)OC(=O)CC(C)(C)c1c(CC(=O)N(C)CC(=O)O)cc(C)cc1OP(=O)(O)O)C(C)(C)C(F)(F)F` [Example 95], in “PBS Stability Assay”, the half-life at 2 μM came out at 253 min. This compound returned a solubility at 2 h in “Solubility in FaSSIF” of 4260 µg/mL (≈ 2740 µM). This compound displayed an EC50 in the data set with HIV-1 IIIB strain of 99.1 nM. In data set [1], the “[Compound]” value was found to be 1927.5 nM.

Turning to `CC[C@H](C)[C@H](NC(=O)Cc1cc(C)cc(OP(=O)(O)O)c1C(C)(C)CC(=O)O[C@@H](CN(Cc1c(F)cc(-c2ccn(C(F)F)n2)cc1F)NC(=O)[C@@H](NC(=O)OC)C(C)(C)C(F)(F)F)[C@H](Cc1ccc(C#Cc2cnc(N3CC4CCC(C3)N4C3COC3)nc2)cc1)NC(=O)[C@@H](NC(=O)OC)C(C)(C)C(F)(F)F)C(=O)O` [Example 96], the half-life at 2 μM in “PBS Stability Assay” came out at 260 min. Moreover, the concentration in solution in the data set “Solubility in FaSSIF” (solubility at 2 h) came to 1840 µg/mL (≈ 1150 µM). Besides, the EC50 with HIV-1 IIIB strain was determined as 559 nM. Also, in data set [1], the “[Compound]” value came out at 2114.6 nM.

In the case of `COC(=O)N[C@H](C(=O)N[C@@H](Cc1ccc(C#Cc2cnc(N3CC4CCC(C3)N4C3COC3)nc2)cc1)[C@H](CN(Cc1c(F)cc(-c2ccn(C(F)F)n2)cc1F)NC(=O)[C@@H](NC(=O)OC)C(C)(C)C(F)(F)F)OC(=O)CC(C)(C)c1c(CC(=O)N(C)[C@@H](C)C(=O)O)cc(C)cc1OP(=O)(O)O)C(C)(C)C(F)(F)F` [Example 97], the half-life at 2 μM in the data set “PBS Stability Assay” was found to be 279 min. Moreover, the solubility at 2 h in the data set “Solubility in FaSSIF” is 4660 µg/mL (≈ 2970 µM). The EC50 in the data set on HIV-1 IIIB strain worked out at 204 nM. In addition, in data set [1], the “[Compound]” value came out at 1772.9 nM.

Turning to `COC(=O)N[C@H](C(=O)N[C@@H](Cc1ccc(C#Cc2cnc(N3CC4CCC(C3)N4C3COC3)nc2)cc1)[C@H](CN(Cc1c(F)cc(-c2ccn(C(F)F)n2)cc1F)NC(=O)[C@@H](NC(=O)OC)C(C)(C)C(F)(F)F)OC(=O)CC(C)(C)c1c(CC(=O)N[C@@H](C)C(=O)O)cc(C)cc1OP(=O)(O)O)C(C)(C)C(F)(F)F` [Example 98], the half-life at 2 μM in “PBS Stability Assay” was found to be 388 min. The compound further came in with a solubility at 2 h in “Solubility in FaSSIF” of 4280 µg/mL (≈ 2750 µM). Besides, the response in the data set with HIV-1 IIIB strain was half-maximal at 64.6 nM (EC50). Further, the “[Compound]” value in data set [1] is 1320.1 nM.

Take `COC(=O)N[C@H](C(=O)N[C@@H](Cc1ccc(C#Cc2cnc(N3CC4CCC(C3)N4C3COC3)nc2)cc1)[C@H](CN(Cc1c(F)cc(-c2ccn(C(F)F)n2)cc1F)NC(=O)[C@@H](NC(=O)OC)C(C)(C)C(F)(F)F)OC(=O)CC(C)(C)c1c(CC(=O)N[C@@H](CC(C)C)C(=O)O)cc(C)cc1OP(=O)(O)O)C(C)(C)C(F)(F)F` [Example 99]: the half-life at 2 μM in “PBS Stability Assay” stood at 447 min. For the same compound, the solubility at 2 h in the data set “Solubility in FaSSIF” worked out at 1880 µg/mL (≈ 1180 µM). For the same compound, the concentration giving a half-maximal response (EC50) with HIV-1 IIIB strain amounted to 373 nM. For the same compound, the “[Compound]” value in data set [1] was found to be 1928.8 nM.

In the case of `COC(=O)N[C@H](C(=O)N[C@@H](Cc1ccc(C#Cc2cnc(N3CC4CCC(C3)N4C3COC3)nc2)cc1)[C@H](CN(Cc1c(F)cc(-c2ccn(C(F)F)n2)cc1F)NC(=O)[C@@H](NC(=O)OC)C(C)(C)C(F)(F)F)OC(=O)CC(C)(C)c1c(CC(=O)NCCOP(=O)(O)O)cc(C)cc1OP(=O)(O)O)C(C)(C)C(F)(F)F` [Example 100, (5S,10S,11S,14S)-8-(4-(1-(difluoromethyl)-1H-pyrazol-3-yl)-2,6-difluorobenzyl)-11-(4-((2-(8-(oxetan-3-yl)-3,8-diazabicyclo[3.2.1]octan-3-yl)pyrimidin-5-yl)ethynyl)benzyl)-3,6,13,16-tetraoxo-5,14-bis(1,1,1-trifluoro-2-methylpropan-2-yl)-2,17-dioxa-4,7,8,12,15-pentaazaoctadecan-10-yl 3-methyl-3-(4-methyl-2-(2-oxo-2-((2-(phosphonooxy)ethyl)amino)ethyl)-6-(phosphonooxy)phenyl)butanoate], in the data set “PBS Stability Assay”, the half-life at 2 μM was 313 min. In addition, the solubility at 2 h in the data set “Solubility in FaSSIF” was determined as 4450 µg/mL (≈ 2770 µM). The compound further came in with an EC50 in the data set on HIV-1 IIIB strain of 42.4 nM. In addition, in data set [1], the “[Compound]” value is given as 1103.4 nM.

With `COC(=O)N[C@H](C(=O)N[C@@H](Cc1ccc(C#Cc2cnc(N3CC4CCC(C3)N4C3COC3)nc2)cc1)[C@H](CN(Cc1c(F)cc(-c2ccn(C(F)F)n2)cc1F)NC(=O)[C@@H](NC(=O)OC)C(C)(C)C(F)(F)F)OC(=O)CC(C)(C)c1c(CC(=O)N[C@H]2C[C@H](C(=O)O)C2)cc(C)cc1OP(=O)(O)O)C(C)(C)C(F)(F)F` [Example 101], in the data set “PBS Stability Assay”, the half-life at 2 μM was found to be 485 min. The compound further gave a solubility at 2 h in “Solubility in FaSSIF” of 1520 µg/mL (≈ 964 µM). In the data set with HIV-1 IIIB strain, this compound displayed an EC50 of 60.6 nM. In addition, the “[Compound]” value in data set [1] worked out at 1688.4 nM.

Regarding `COC(=O)N[C@H](C(=O)N[C@@H](Cc1ccc(C#Cc2cnc(N3CC4CCC(C3)N4C3COC3)nc2)cc1)[C@H](CN(Cc1c(F)cc(-c2ccn(C(F)F)n2)cc1F)NC(=O)[C@@H](NC(=O)OC)C(C)(C)C(F)(F)F)OC(=O)CC(C)(C)c1c(CC(=O)N[C@H]2C[C@@H](C(=O)O)C2)cc(C)cc1OP(=O)(O)O)C(C)(C)C(F)(F)F` [Example 102], the half-life at 2 μM in “PBS Stability Assay” came to 467 min. This compound also gave a solubility at 2 h in “Solubility in FaSSIF” of 2860 µg/mL (≈ 1810 µM). Moreover, the response with HIV-1 IIIB strain was half-maximal at 54.1 nM (EC50). Besides, the “[Compound]” value in data set [1] worked out at 1966.3 nM.

As for `COC(=O)N[C@H](C(=O)N[C@@H](Cc1ccc(C#Cc2cnc(N3CC4CCC(C3)N4C3COC3)nc2)cc1)[C@H](CN(Cc1c(F)cc(-c2ccn(C(F)F)n2)cc1F)NC(=O)[C@@H](NC(=O)OC)C(C)(C)C(F)(F)F)OC(=O)CC(C)(C)c1c(CC(=O)NCC(C)(C)C(=O)O)cc(C)cc1OP(=O)(O)O)C(C)(C)C(F)(F)F` [Example 103], the half-life at 2 μM in the data set “PBS Stability Assay” worked out at 331 min. In the data set “Solubility in FaSSIF”, the solubility at 2 h was 80 µg/mL (≈ 50.5 µM). In addition, the EC50 with HIV-1 IIIB strain turned out to be 132 nM. In addition, the “[Compound]” value in data set [1] is on record as 1589 nM.

Take `COC(=O)N[C@H](C(=O)N[C@@H](Cc1ccc(C#Cc2cnc(N3CC4CCC(C3)N4C3COC3)nc2)cc1)[C@H](CN(Cc1c(F)cc(-c2ccn(C(F)F)n2)cc1F)NC(=O)[C@@H](NC(=O)OC)C(C)(C)C(F)(F)F)OC(=O)CC(C)(C)c1c(CC(=O)N(CC(=O)O)CC(=O)O)cc(C)cc1OP(=O)(O)O)C(C)(C)C(F)(F)F` [Example 106]: the half-life at 2 μM in the data set “PBS Stability Assay” worked out at 271 min. Also, in “Solubility in FaSSIF”, the solubility at 2 h came out at 3920 µg/mL (≈ 2450 µM). The response in the data set with HIV-1 IIIB strain was half-maximal at 761 nM (EC50). For the same compound, in data set [1], the “[Compound]” value is recorded as 1588.2 nM.

These data come from US20250051375A1, “ANTI-HIV COMPOUNDS” (Gilead Sciences, Inc., priority 2023, published 2025).
